Our source for the IC50 values is patent publication US20240043439A1, “COMPOUNDS AS C5AR INHIBITORS” (Kira Pharmaceuticals (Suzhou) Ltd., priority 2020, published 2024).

As usually defined, the pIC50 is −log10 of the IC50, conventionally taken in molar units.

pIC50: −log10 of the molar value.

For the test, the target named is C5aR (Homo sapiens (Human), UniProt P21730). Briefly: Calcium mobilization (U937/C5aR or HEK293/C5aR cells, FLIPR). As to conditions: agonist human C5a at EC80, FLIPR. Type of test: cell-based. How it is done: U937/C5aR cells or HEK293/C5aR cells were washed by PBS and suspended in growth media at the density of 1×10^6 cells/ml. […] to the 384-well plate and culture for overnight. Transfer 250 nl compound solution to the cell plate using Echo, incubate for 60 min. Cells were added with Fluo-4 Direct™ dye and incubate for 50 min at 37° C. 5% CO2 and 10 m at room temperature. Place the cell plate into […] (Molecular Devices). Transfer 10 μl of 5-fold EC80 concentrations of agonist human C5a to the cell plates.
Sequence of C5aR (P21730 whole entry): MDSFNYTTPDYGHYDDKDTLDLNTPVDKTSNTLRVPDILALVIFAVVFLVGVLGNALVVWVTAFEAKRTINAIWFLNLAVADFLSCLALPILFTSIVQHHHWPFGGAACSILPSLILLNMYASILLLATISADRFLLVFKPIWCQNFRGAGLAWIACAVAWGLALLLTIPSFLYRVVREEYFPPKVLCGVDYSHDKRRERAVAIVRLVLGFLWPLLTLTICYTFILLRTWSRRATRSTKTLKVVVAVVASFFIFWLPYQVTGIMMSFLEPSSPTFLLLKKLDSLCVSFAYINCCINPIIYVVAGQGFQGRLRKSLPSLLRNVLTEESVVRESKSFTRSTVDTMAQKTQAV
For `COC(=O)c1cccc(C)c1S(=O)(=O)N1CCC[C@H](C(=O)Nc2ccc(C)c(C(F)(F)F)c2)[C@@H]1c1ccc(NC2CCCC2)cc1` [Compound 21, methyl 2-(((2R,3S)-2-(4-(cyclopentylamino)phenyl)-3-((4-methyl-3-(trifluoromethyl)phenyl)carbamoyl)piperidin-1-yl)sulfonyl)-3-methylbenzoate], the pIC50 is less than 5.00.

As for `COC(=O)c1ccccc1S(=O)(=O)N1CCC[C@H](C(=O)Nc2ccc(C)c(C(F)(F)F)c2)[C@@H]1c1ccc(NC2CCCC2)cc1` [Compound 31, methyl 2-(((2R,3S)-2-(4-(cyclopentylamino)phenyl)-3-((4-methyl-3-(trifluoromethyl)phenyl)carbamoyl)piperidin-1-yl)sulfonyl)benzoate], the pIC50 is 5.00 to 5.70.

Turning to `Cc1ccc(NC(=O)[C@@H]2CCC3CCc4ccccc4C(=O)N3[C@@H]2c2ccc(NC3CCCC3)cc2)cc1C(F)(F)F` (stereo partly drawn) [Compound 45, (3R,4S)-4-(4-(cyclopentylamino)phenyl)-N-(4-methyl-3-(trifluoromethyl)phenyl)-6-oxo-1,2,3,4,6,11,12,12a-octahydrobenzo[e]pyrido[1,2-a]azepine-3-carboxamide], the pIC50 is 5.00 to 5.70.

Take `Cc1cccc(F)c1C(=O)N1[C@@H]2CCC[C@@H]2C[C@H](C(=O)NC2CCN(C)CC2)[C@@H]1c1ccc(NC2CCCC2)cc1` [Compound 53, (2R,3S,4aR,7aR)-2-(4-(cyclopentylamino)phenyl)-1-(2-fluoro-6-methylbenzoyl)-N-(1-methylpiperidin-4-yl)octahydro-1H-cyclopenta[b]pyridine-3-carboxamide]: the pIC50 is 5.00 to 5.70.

Consider `Cc1ccc(NC(=O)[C@H]2CCCN(Cc3c(C)cccc3F)[C@H]2c2ccc(NC3CCCC3)cc2)cc1C(F)(F)F` [Compound 159, (2R,3S)-2-(4-(cyclopentylamino)phenyl)-1-(2-fluoro-6-methylbenzyl)-N-(4-methyl-3-(trifluoromethyl)phenyl)piperidine-3-carboxamide], for which the negative-log IC50 (pIC50) is 5.00 to 5.70.

Consider `Cc1ccc(NC[C@H]2CCCN(C(=O)c3c(C)cccc3F)[C@H]2c2ccc(NC3CCCC3)cc2)cc1C(F)(F)F` [Compound 160, ((2R,3R)-2-(4-(cyclopentylamino)phenyl)-3-(((4-methyl-3-(trifluoromethyl)phenyl)amino)methyl)piperidin-1-yl)(2-fluoro-6-methylphenyl)methanone], for which the pIC50 is 5.00 to 5.70.

On to `Cc1ccc(NC(=O)[C@H]2CCCN(c3ncnc4ccccc34)[C@H]2c2ccc(N(C(=O)OCc3ccccc3)C3CCCC3)cc2)cc1C(F)(F)F` [Compound 163, benzyl cyclopentyl(4-((2R,3S)-3-((4-methyl-3-(trifluoromethyl)phenyl)carbamoyl)-1-(quinazolin-4-yl)piperidin-2-yl)phenyl)carbamate], for which the pIC50 is 5.00 to 5.70.

Regarding `Cc1ccc(NC(=O)[C@H]2CCCN(c3nccc4nccnc34)[C@H]2c2ccc(N(C(=O)OCc3ccccc3)C3CCCC3)cc2)cc1C(F)(F)F` [Compound 165, benzyl cyclopentyl(4-((2R,3S)-3-((4-methyl-3-(trifluoromethyl)phenyl)carbamoyl)-1-(pyrido[3,4-b]pyrazin-5-yl)piperidin-2-yl)phenyl)carbamate], the negative-log IC50 (pIC50) is 5.00 to 5.70.

As for `Cc1ccc(NC(=O)[C@H]2CCCN(c3ncnc4cnccc34)[C@H]2c2ccc(N(C(=O)OCc3ccccc3)C3CCCC3)cc2)cc1C(F)(F)F` [Compound 167, benzyl cyclopentyl(4-((2R,3S)-3-((4-methyl-3-(trifluoromethyl)phenyl)carbamoyl)-1-(pyrido[3,4-d]pyrimidin-4-yl)piperidin-2-yl)phenyl)carbamate], the pIC50 was 5.00 to 5.70.

Take `Cc1ccc(NC(=O)[C@H]2CCCN[C@H]2c2ccc(N(c3nccc4scnc34)C3CCCC3)cc2)cc1C(F)(F)F` [Compound 169, (2R,3S)-2-(4-(cyclopentyl(thiazolo[4,5-c]pyridin-4-yl)amino)phenyl)-N-(4-methyl-3-(trifluoromethyl)phenyl)piperidine-3-carboxamide]: the pIC50 was 5.00 to 5.70.

For the compound `Cc1ccc(NC(=O)[C@@H]2CCCN[C@H]2c2ccc(N(c3nccc4cccnc34)C3CCCC3)cc2)cc1C(F)(F)F` [Compound 171, (2R,3R)-2-(4-(cyclopentyl(1,7-naphthyridin-8-yl)amino)phenyl)-N-(4-methyl-3-(trifluoromethyl)phenyl)piperidine-3-carboxamide], the pIC50 is 5.00 to 5.70.

Turning to `Cc1ccc(NC(=O)[C@H]2CCCN[C@H]2c2ccc(N(c3nccc4nccnc34)C3CCCC3)cc2)cc1C(F)(F)F` [Compound 172, (2R,3S)-2-(4-(cyclopentyl(pyrido[3,4-b]pyrazin-5-yl)amino)phenyl)-N-(4-methyl-3-(trifluoromethyl)phenyl)piperidine-3-carboxamide], the pIC50 is 5.00 to 5.70.

As for `Cc1ccc(NC(=O)[C@H]2CCCN[C@H]2c2ccc(N(c3nccc4ccsc34)C3CCCC3)cc2)cc1C(F)(F)F` [Compound 173, (2R,3S)-2-(4-(cyclopentyl(thieno[2,3-c]pyridin-7-yl)amino)phenyl)-N-(4-methyl-3-(trifluoromethyl)phenyl)piperidine-3-carboxamide], the pIC50 is 5.00 to 5.70.

Turning to `Cc1ccc(NC(=O)[C@@H]2CCCN[C@H]2c2ccc(N(c3ncnc4cccnc34)C3CCCC3)cc2)cc1C(F)(F)F` [Compound 174, (2R,3R)-2-(4-(cyclopentyl(pyrido[3,2-d]pyrimidin-4-yl)amino)phenyl)-N-(4-methyl-3-(trifluoromethyl)phenyl)piperidine-3-carboxamide], the pIC50 was 5.00 to 5.70.

Regarding `Cc1ccc(NC(=O)[C@H]2CCCN[C@H]2c2ccc(N(c3nccc4ccccc34)C3CCCC3)cc2)cc1C(F)(F)F` [Compound 175, (2R,3S)-2-(4-(cyclopentyl(isoquinolin-1-yl)amino)phenyl)-N-(4-methyl-3-(trifluoromethyl)phenyl)piperidine-3-carboxamide], the pIC50 is 5.00 to 5.70.

For the compound `Cc1ccc(NC(=O)[C@H]2CCCN[C@H]2c2ccc(N(c3ncnc4cccnc34)C3CCCC3)cc2)cc1C(F)(F)F` [Compound 176, (2R,3S)-2-(4-(cyclopentyl(pyrido[3,2-d]pyrimidin-4-yl)amino)phenyl)-N-(4-methyl-3-(trifluoromethyl)phenyl)piperidine-3-carboxamide], the pIC50 is 5.00 to 5.70.

With `Cc1ccc(NC(=O)[C@H]2CCCN[C@H]2c2ccc(N(c3ncnc4ccccc34)C3CCCC3)cc2)cc1C(F)(F)F` [Compound 177, (2R,3S)-2-(4-(cyclopentyl(quinazolin-4-yl)amino)phenyl)-N-(4-methyl-3-(trifluoromethyl)phenyl)piperidine-3-carboxamide], the pIC50 was 5.00 to 5.70.

As for `Cc1ccc(NC(=O)[C@H]2CCCN[C@H]2c2ccc(N(c3ncnc4cnccc34)C3CCCC3)cc2)cc1C(F)(F)F` [Compound 178, (2R,3S)-2-(4-(cyclopentyl(pyrido[3,4-d]pyrimidin-4-yl)amino)phenyl)-N-(4-methyl-3-(trifluoromethyl)phenyl)piperidine-3-carboxamide], the pIC50 is 5.00 to 5.70.

As for `Cc1ccc(NC(=O)[C@H]2CCCN[C@H]2c2ccc(N(c3nncc4ccccc34)C3CCCC3)cc2)cc1C(F)(F)F` [Compound 179, (2R,3S)-2-(4-(cyclopentyl(phthalazin-1-yl)amino)phenyl)-N-(4-methyl-3-(trifluoromethyl)phenyl)piperidine-3-carboxamide], the pIC50 is 5.00 to 5.70.

Consider `Cc1ccc(CNC(=O)[C@H]2C[C@H]3CCC[C@H]3N(C(=O)c3c(C)cccc3F)[C@H]2c2ccc(NC3CCCC3)cc2)cc1C(F)(F)F` [Compound 185, (2R,3S,4aR,7aR)-2-(4-(cyclopentylamino)phenyl)-1-(2-fluoro-6-methylbenzoyl)-N-(4-methyl-3-(trifluoromethyl)benzyl)octahydro-1H-cyclopenta[b]pyridine-3-carboxamide], for which the pIC50 was 5.00 to 5.70.

As to “(cis-3-(6-chloro-1,2,3,4-tetrahydroisoquinoline-2-carbonyl)-2-(4-(cyclopentylamino)phenyl)octahydro-1H-cyclopenta[b]pyridin-1-yl)(2-fluoro-6-methylphenyl)methanone [Compound 72]”, the pIC50 was 5.00 to 5.70.
